Measurements published in publication PMC10011747, “Targeting androgen receptor and the variants by an orally bioavailable Proteolysis Targeting Chimeras compound in castration resistant prostate cancer” (eBioMedicine, 2023).

Columns and labels:
[1] = Metabolic stability in liver microsomes; format: in vitro ADME; conditions: pooled liver microsomes, pH 7.4, mouse CD-1 liver microsome 0.8 mg/mL, read-out: MLM stability T1/2
Procedure: The mouse CD-1 pooled liver microsome (Corning Product ID: 452701, Lot: 0010003) was used to test compound stability. The reaction was carried out in 100 mM, pH 7.4 phosphate buffer containing microsome (0.8 mg/mL), NADP^+ (1.3 mM), glucose-6-phosphate (3.3 mM), glucose-6-phosphate dehydrogenase (0.4 U/mL), magnesium chloride (3.3 mM) and the test article (1 μM) with 1% (v/v) final concentration of DMSO. The reaction was incubated at 37 °C with shaking. At 0, 10, 20, and 30 min time points, 20 μL of the reaction mixture was taken and quenched immediately with 120 μL acetonitrile. The quenched sample were centrifuged, and the supernatant was then analyzed by LC-MS/MS (ABI4000Q-TRAP). 1 μM warfarin and 1 μM verapamil with same reaction conditions was used as negative and positive control, respectively.

CWR22Rv1 xenograft = CWR22Rv1 xenograft efficacy study; format: in vivo
Procedure: Immunodifficient male C.B-17 SCID mice (NOD.CB17-Prkdc^scid/NcrCrlBltw) at 4–6 weeks of age were purchased from BioLASCO Taiwan Co., Ilan, Taiwan. All mice were housed in conventional cages in the AAALAC Full Accreditation (2011) in Industrial Technology Research Institute and were allowed to acclimatize and recover from shipping-related stress for one week prior to the study. The health of the mice was monitored by daily observations. Animals were kept in rooms at temperature of 22–26 °C with 40–70% humidity, positive pressure, 60% air recirculation, ventilation rate 15–20 changes per hour, and a controlled light–dark cycle (12–12 h). The order and location of each animal cage was randomly assigned to minimize potential confounders. CWR22Rv1 cells (5 × 10^6) were suspended in 100 μL of PBS with 30% Matrigel and subcutaneously implanted into the right flank of male C.B-17 SCID mice. Tumors were measured with calipers, and tumor size was calculated as follows: tumor volume (V) = (L × S^2)/2 (L, longest diameter, mm; S, shortest diameter, mm). When mean tumor volume reached 150–200 mm^3, the mice were randomly assigned into indicated groups (n = 5–6/group) and the day of initiating treatments was assigned as day 0. In the study using intraperitoneal (IP) injection, the mice received vehicle control (NMP: Cremophor: PBS = 1:2:7 (v:v:v)), ITRI-90 (10 mg/kg, BID) or ITRI-126 (10 mg/kg, BID) for the indicated days. In the study using oral (PO) gavage, the mice received vehicle control or ITRI-90 (100 mg/kg, BID) for 21 days. Tumor size and body weight of the animals were monitored and recorded two to three times per week. Mice were sacrificed when one of the tumor reached over 1000 mm^3 in size. Tumors were collected and immediately subjected to liquid nitrogen freezing and homogenization. The homogenized tumor samples were stored at −80 °C for subsequent western blotting analysis. The drug antitumor efficacy was presented as percentages of TGI of each tested animal, calculated as follows: [1 − (final tumor volume − initial tumor volume of the treated group)/average of (final tumor volume − initial tumor volume of the vehicle group)] × 100. Body weight of each mouse was also compared to that on the first day of treatment (day 0) and expressed as a percentage of day 0 value. All data points were included for calculation and the values are presented as mean ± SEM. Statistical analysis of the differences between two drug and vehicle treated groups was determined by two-tailed Student's t test. For negative control, same procedures as described above were followed. PC3 cells (5 × 10^6) mixing with 50% matrigel were subcutaneously implanted into both flanks of 8 male C.B-17 SCID mice, followed by random assignment for oral administration of vehicle control or ITRI-90 drug (100 mg/kg, BID) treatment (n = 4/group).

[2] = test system: AR-negative PC3 prostate cancer model; experiment: PC3 xenograft negative control study; format: in vivo, mouse; conditions: PO 100 mg/kg twice daily
Procedure: Immunodifficient male C.B-17 SCID mice (NOD.CB17-Prkdc^scid/NcrCrlBltw) at 4–6 weeks of age were purchased from BioLASCO Taiwan Co., Ilan, Taiwan. All mice were housed in conventional cages in the AAALAC Full Accreditation (2011) in Industrial Technology Research Institute and were allowed to acclimatize and recover from shipping-related stress for one week prior to the study. The health of the mice was monitored by daily observations. Animals were kept in rooms at temperature of 22–26 °C with 40–70% humidity, positive pressure, 60% air recirculation, ventilation rate 15–20 changes per hour, and a controlled light–dark cycle (12–12 h). […] Tumors were measured with calipers, and tumor size was calculated as follows: tumor volume (V) = (L × S^2)/2 (L, longest diameter, mm; S, shortest diameter, mm). […] Tumor size and body weight of the animals were monitored and recorded two to three times per week. […] The drug antitumor efficacy was presented as percentages of TGI of each tested animal, calculated as follows: [1 − (final tumor volume − initial tumor volume of the treated group)/average of (final tumor volume − initial tumor volume of the vehicle group)] × 100. Body weight of each mouse was also compared to that on the first day of treatment (day 0) and expressed as a percentage of day 0 value. […]
Figure S15. […] (a) CWR22Rv1 and PC3 cell viability was detected upon 7 days treatment of ITRI-90. […]

AR-negative PC3 cells = experiment: Cell viability, PC3; format: cell-based, human; conditions: 7 days treatment
Procedure: (§1) Cells were seeded in triplicate in 96-well plates 1 day prior to drug treatment for all assays. For viability test and IC50 assessment, the alamarBlue™ Cell Viability Reagent (Thermo Fisher Scientific) was added to cells 7 days after PROTAC treatment, followed by fluorescence detection as the manufacturer instructed. The IC50 was calculated by dose-inhibition regression. For proliferation monitoring, 2, 4, 6 and 8 days after PROTAC treatment (day 0), viable cells were detected by MTT Cell Proliferation Kit I (Sigma–Aldrich) according to the manufacturer's instructions. Cellular caspase activity was measured by Caspase-Glo 3/7 Assay System (Promega) 1 or 2 days after the drug treatment.
Figure S15. ITRI-90 is ineffective for AR-n egative PC3 cells. (a) CWR22Rv1 and PC3 cell viability was detected upon 7 days treatment of ITRI-90. (b,c) Antitumor activity of ITRI -90 towards PC3 tumor xenografts.
PC3 tumor xenografts implanted in SCID mice were treated with ITRI-90 orally using 100 mg/kg twice daily dosing. The numbers of tumor in each group is as indicated. (b) Scatter plots of the tumor size. (c) Western blotting of AR and AR -V proteins in the tumors collected at the final time points. CWR22Rv1 xenograft samples from Figure 7i were used as positive control for AR and AR-V expression.
(1 picture or pasted object on this page, not shown here)

[3] = test system: LNCaP, CWR22Rv1 and VCaP cells; experiment: alamarBlue cell viability, all three cell lines; format: cell-based; conditions: Homo sapiens, 168 h; 7 days treatment; read-out: IC50 cell viability, range in all three cell lines
Procedure: as §1

[4] = In vitro stability in plasma; format: in vitro ADME; conditions: mouse, BALB/c mice plasma, 37 °C, read-out: Plasma stability T1/2
Procedure: The in vitro stability of the PROTAC compounds was performed in BALB/C (BALB/cAnNCrlBltw) mice plasma. The reactions were initiated by adding 10 μM PROTAC compounds to 0.5 mL of pre-warmed plasma solution. The assays were performed in Thermomixer at 37 °C. During the incubation, 20 μL samples were taken at 0, 30, 60, 120, and 240 min time points, and added to 120 μL of acetonitrile to deproteinize the plasma. After 10 min of centrifugation at 14,000 rpm, the supernatants were collected for subsequent HPLC-UV analysis (Waters 1525 Binary and 2707 Autosampler).

caspase 3/7 = experiment: Caspase-Glo 3/7 activity; format: cell-based, human; conditions: 5 μM LNCaP, 1 μM CWR22Rv1, two days after treatment
Procedure: as §1

Structure (SMILES) | half-life at 1 μM [1] [h] | toxicity monitored by animal body weight (CWR22Rv1 xenograft; IP 10 mg/kg twice daily) | tumor growth inhibition (TGI) (CWR22Rv1 xenograft; IP 10 mg/kg twice daily, day 12, SCID mice, no hormone manipulation) [%] | toxicity monitored by animal body weight (CWR22Rv1 xenograft; PO 100 mg/kg twice daily, 21 days) | tumor growth inhibition (TGI) (CWR22Rv1 xenograft; PO 100 mg/kg twice daily, day 21, SCID mice, no hormone ablation) [%] | AR-FL and AR-Vs protein levels in tumors (CWR22Rv1 xenograft; PO 100 mg/kg twice daily, final time point, western blot) | antitumor activity towards PC3 tumor xenografts [2] | PC3 cell viability (AR-negative PC3 cells) | IC50 [3] [nM] | half-life at 10 μM [4] [h] | caspase 3/7 activity at lower concentrations (caspase 3/7) | tumor growth inhibition (TGI) (CWR22Rv1 xenograft; IP 10 mg/kg twice daily, day 14, SCID mice, no hormone manipulation) [%] | toxicity monitored by animal body weight (CWR22Rv1 xenograft; mouse, in vivo, ip, 10 mg/kg)
Cc1ncsc1-c1ccc(CNC(=O)[C@@H]2C[C@H](O)CN2C(=O)[C@@H](NC(=O)COCCCCOc2ccc(C3CCN(C4=Nn5c(nnc5C(F)(F)F)CC4)CC3)cc2)C(C)(C)C)cc1 [ITRI-90, (2S,4S)-1-((S)-3,3-dimethyl-2-(2-(4-(4-(1-(3-(trifluoromethyl)-7,8-dihydro-[1,2,4]triazolo[4,3-b]pyridazin-6-yl)piperidin-4-yl)phenoxy)butoxy)acetamido)butanoyl)-4-hydroxy-N-(4-(4-methylthiazol-5-yl)benzyl)pyrrolidine-2-carboxamide] | > 0.5 | without obvious toxicities | 76.64 ± 11.1 | without obvious toxicity | 71.73 ± 6.42 | reduced | ineffectiveness | ineffective | 3000 to 6000 | > 4 |  |  | 
O=C1CCC(N2Cc3c(NC(=O)COCCCCOc4ccc(C5CCN(C6=Nn7c(nnc7C(F)(F)F)CC6)CC5)cc4)cccc3C2=O)C(=O)N1 (centres unmarked) [ITRI-126, N-(2-(2,6-dioxopiperidin-3-yl)-1-oxoisoindolin-4-yl)-2-(4-(4-(1-(3-(trifluoromethyl)-7,8-dihydro-[1,2,4]triazolo[4,3-b]pyridazin-6-yl)piperidin-4-yl)phenoxy)butoxy)acetamide] |  |  |  |  |  |  |  |  | 70 to 400 |  | induced strong caspase activity two days after drug treatment | 49.8 ± 11.1 | without obvious toxicities
Cc1ncsc1-c1ccc(CNC(=O)[C@@H]2C[C@H](O)CN2C(=O)[C@@H](NC(=O)COCCCCCCOc2ccc(C3CCN(C4=Nn5c(nnc5C(F)(F)F)CC4)CC3)cc2)C(C)(C)C)cc1 [ITRI-125, (2S,4S)-1-((S)-3,3-dimethyl-2-(2-(6-(4-(1-(3-(trifluoromethyl)-7,8-dihydro-[1,2,4]triazolo[4,3-b]pyridazin-6-yl)piperidin-4-yl)phenoxy)hexyloxy)acetamido)butanoyl)-4-hydroxy-N-(4-(4-methylthiazol-5-yl)benzyl)pyrrolidine-2-carboxamide] | > 0.5 |  |  |  |  |  |  |  | 3000 to 6000 | > 4 |  |  | 
